The results in this text go back to patent publication US9409952B2, “Peptide-compound cyclization method” (Chugai Seiyaku Kabushiki Kaisha, priority 2011, dated 2016).

The nature of data set [1]: PAMPA (parallel artificial membrane permeability assay). Conditions: for Papp at 18 hours, 50 µM: PAMPA. Type of data set: in vitro ADME. In a few lines:
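Artificial membrane was 10% (w/v) egg lecithin plus 0.5% (w/v) cholesterol in dodecane on a PVDF filter. A 10 mM DMSO stock was added at 0.5% (v/v) to donor buffer (50 mM MOPSO, pH 6.5, 5.0% glycocholic acid). After 18 h at 37 °C, LC/MS or LC/UV gave donor and acceptor levels for Pe.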
On the technique in general: PAMPA measures passive passage across an artificial lipid membrane.

The nature of data set [2]: Metabolic stability in human hepatic microsome. As to conditions: microsomes. Type of data set: in vitro ADME.
Setting [3] is: membrane permeation rate (Pe), 50 mM MOPSO buffer pH 6.5 with 5.0% glycocholic acid, 37° C., 18 hours, read-out: iPAMPA Pe.
The mark [4] stands for this setting: pH 7.4, human hepatic microsome, NADPH(+), read-out: CL NADPH(+).

Read-outs that look alike come from different tables or passages of the source. Starred links: 1 amine or outer side, 2 acyl side, 3 side chain; linkers in the order of their positions; H or OH if unused. Positions of bridges follow the written chain, without caps; N, C: chain ends. Non-standard residues stand in square brackets, D forms with d. Residues, ends and D or L forms follow the SMILES beside them. *: point of attachment. NMePhe(3-Cl) = CN[C@@H](Cc1cccc(Cl)c1)C(=O)O; NMeF = CN[C@@H](Cc1ccccc1)C(=O)O; NMeI = CC[C@H](C)[C@H](NC)C(=O)O; NMeβAla = CN(CCC(=O)[*:2])[*:1]; NMeL = CN[C@@H](CC(C)C)C(=O)O; NMeV = CN[C@H](C(=O)O)C(C)C; NMeA = CN[C@@H](C)C(=O)O; Piperidide = C1CCN(*)CC1; dNMeA = CN[C@H](C)C(=O)O; Sar = CNCC(=O)O; tBu = CC(C)(C)*

As to `CC(C)C[C@@H]1NC(=O)[C@H](CC(C)C)N(C)C(=O)[C@H](C)NC(=O)[C@H](C(C)C)N(C)C(=O)[C@H](Cc2ccccc2)NC(=O)CN(C)C(=O)[C@H]([C@@H](C)O)NC(=O)[C@H](C)N(C)C(=O)[C@H](CC(C)C)N(C)C(=O)[C@@H](C)NC(=O)C[C@@H](C(=O)N(C)[C@@H](Cc2ccccc2)C(=O)N[C@@H](C)C(=O)N2CCCCC2)NC1=O` [DP-179] ([dA][NMeL][NMeA]T[Sar]F[NMeV]A[NMeL]LD[NMeF]A-Piperidide; lactam N-11), the Papp at 18 hours, 50 µM in data set [1] (setting [3]) turned out to be 17 ×10⁻⁶ cm/s. The microsomal CLint at 1 uM in data set [2] (setting [4]) is 13 µL/min/mg.
Turning to `CC[C@H](C)[C@H](NC(=O)[C@H](CC(C)C)NC(=O)[C@H](CC(C)C)N(C)C(=O)[C@H](Cc1cccc(Cl)c1)N(C)C(=O)[C@@H](NC(=O)[C@@H]1CC(=O)N[C@@H](Cc2ccccc2)C(=O)N[C@@H]([C@@H](C)O)C(=O)N[C@@H](CC(C)C)C(=O)N(C)[C@@H](CC(C)C)C(=O)N(C)[C@@H](C)C(=O)N(C)[C@@H](CC(C)C)C(=O)N1)[C@@H](C)CC)C(=O)N1CCCCC1` [DP-914] (FTL[NMeL][NMeA][NMeL]DI[NMePhe(3-Cl)][NMeL]LI-Piperidide; lactam N-7), the “iPAMPA Pe” value in data set [1] (membrane permeation rate (Pe), 50 mM MOPSO buffer pH 6.5 with 5.0% glycocholic acid, 37° C., 18 hours) turned out to be 1.0E−07. Further, in data set [2] (setting [4]), the microsomal CLint at 1 uM was found to be 29 µL/min/mg.
With `CC[C@H](C)[C@@H]1NC(=O)[C@H](CC(C)C)N(C)C(=O)CN(C)C(=O)[C@H]([C@@H](C)O)NC(=O)[C@H](C)N(C)C(=O)C[C@@H](C(=O)N(C)[C@@H](C)C(=O)N[C@@H](CC(C)C)C(=O)N[C@H](C(=O)N(C)[C@@H](C)C(=O)N[C@@H](C)C(=O)N2CCCCC2)C(C)C)NC(=O)[C@H](CC(C)C)N(C)C(=O)[C@H](Cc2ccccc2)N(C)C(=O)[C@H](CC(C)C)N(C)C1=O` [DP-659] ([NMeA]T[Sar][NMeL]I[NMeL][NMeF][NMeL]D[NMeA]LV[NMeA]A-Piperidide; lactam N-9), the Papp at 18 hours, 50 µM in data set [1] (setting [3]) worked out at 22 ×10⁻⁶ cm/s. Further, in data set [2] (setting [4]), the microsomal CLint at 1 uM is 13 µL/min/mg.
For `CC(C)C[C@@H]1NC(=O)[C@H](CC(C)C)N(C)C(=O)[C@H](C)N(C)C(=O)[C@@H](C)N(C)C(=O)C[C@@H](C(=O)N2CCCCC2)NC(=O)[C@H]([C@@H](C)O)NC(=O)CN(C)C(=O)[C@H](Cc2ccccc2)NC(=O)[C@H](CC(C)C)N(C)C(=O)[C@H](C(C)C)N(C)C(=O)[C@H](Cc2ccccc2)N(C)C1=O` [DP-165] ([dNMeA][NMeA][NMeL]L[NMeF][NMeV][NMeL]F[Sar]TD-Piperidide; lactam N-11), in that order: 56 ×10⁻⁶ cm/s and 42 µL/min/mg.
As for `CC(C)C[C@H]1C(=O)N[C@@H]([C@@H](C)O)C(=O)N(C)[C@@H](Cc2ccccc2)C(=O)N(C)[C@@H](CC(C)C)C(=O)NCC(=O)N(C)[C@@H](C(C)C)C(=O)N[C@@H](Cc2ccccc2)C(=O)N[C@H](C(=O)N(C)[C@@H](Cc2ccccc2)C(=O)N[C@@H](C)C(=O)N2CCCCC2)CC(=O)N(C)CCC(=O)N[C@@H](C(C)C)C(=O)N1C` [DP-193] ([NMeβAla]V[NMeL]T[NMeF][NMeL]G[NMeV]FD[NMeF]A-Piperidide; lactam N-10), in data set [1] (setting [3]), the Papp at 18 hours, 50 µM worked out at 53 ×10⁻⁶ cm/s. Also, in data set [2] (setting [4]), the microsomal CLint at 1 uM amounted to 124 µL/min/mg.
For the compound `CC[C@H](C)[C@H]1C(=O)N[C@H](C(=O)N2CCCCC2)CC(=O)N(C)[C@@H](C)C(=O)N(C)[C@@H](CC(C)C)C(=O)N(C)[C@@H](Cc2ccccc2)C(=O)N[C@@H]([C@@H](C)O)C(=O)N(C)CC(=O)N(C)[C@@H](CC(C)C)C(=O)N[C@@H](COC(C)(C)C)C(=O)N1C` [DP-152] ([NMeA][NMeL][NMeF]T[Sar][NMeL]S(tBu)[NMeI]D-Piperidide; lactam N-9), the Papp at 18 hours, 50 µM in data set [1] (setting [3]) was found to be 61 ×10⁻⁶ cm/s. The microsomal CLint at 1 uM in data set [2] (setting [4]) amounted to 93 µL/min/mg.
For `CC[C@H](C)[C@H]1C(=O)N[C@@H](CC(C)C)C(=O)N(C)[C@@H](Cc2ccccc2)C(=O)N(C)[C@@H](CC(C)C)C(=O)N[C@@H]([C@@H](C)O)C(=O)N[C@@H](Cc2ccccc2)C(=O)N(C)[C@@H](C(C)C)C(=O)N[C@H](C(=O)N2CCCCC2)CC(=O)N(C)CC(=O)N[C@@H](C)C(=O)N1C` [DP-145] ([Sar]A[NMeI]L[NMeF][NMeL]TF[NMeV]D-Piperidide; lactam N-10) the same measures were 29 ×10⁻⁶ cm/s and 232 µL/min/mg.
For `CC(C)C[C@H]1C(=O)NCC(=O)N[C@H](C(=O)N(C)[C@@H](Cc2ccccc2)C(=O)N[C@@H](C)C(=O)N2CCCCC2)CC(=O)N[C@@H](C)C(=O)N[C@@H]([C@@H](C)O)C(=O)N(C)[C@@H](C)C(=O)N(C)[C@@H](Cc2ccccc2)C(=O)N[C@@H](C(C)C)C(=O)N(C)[C@@H](Cc2ccccc2)C(=O)N1C` [DP-378] (AT[NMeA][NMeF]V[NMeF][NMeL]GD[NMeF]A-Piperidide; lactam N-9), in that order: 31 ×10⁻⁶ cm/s and 219 µL/min/mg.
For the compound `CC(C)C[C@H]1C(=O)N[C@H](C(=O)N(C)[C@@H](Cc2ccccc2)C(=O)N[C@@H](C)C(=O)N2CCCCC2)CC(=O)N(C)[C@@H](C)C(=O)N[C@@H](Cc2ccccc2)C(=O)N(C)[C@@H](C(C)C)C(=O)N(C)[C@@H](C)C(=O)N[C@@H]([C@@H](C)O)C(=O)N(C)[C@@H](C)C(=O)N(C)[C@@H](CC(C)C)C(=O)N[C@@H](C)C(=O)N1C` [DP-296] ([NMeA]F[NMeV][NMeA]T[NMeA][NMeL]A[NMeL]D[NMeF]A-Piperidide; lactam N-10), the Papp at 18 hours, 50 µM in data set [1] (pH 6.5) stood at 15 ×10⁻⁶ cm/s. For the same compound, the microsomal CLint at 1 uM in data set [2] (human, pH 7.4, CL NADPH(+)) turned out to be 64 µL/min/mg.
